In patent EP1282414B1, “FELBAMATE DERIVED COMPOUNDS FOR TREATING NEUROPATHIC PAIN” (University of Virginia Patent Foundation, priority 2000, dated 2001):

Experiments:
[1] = test system: MES-induced seizure spread; experiment: Maximal Electroshock Seizure (MES) test, rats p.o.; type: in vivo, rat; conditions: for MES, number of animals protected / total number of animals tested: rat p.o., 30 mg/kg
Text: (§1) The fluoro derivatives synthesized were submitted to the National Institute of Neurological Disorders and Stroke (NINDS) for evaluation in a standard panel of assays. Two convulsant tests (MES and scMET), and a toxicity screen (rotorod in mice, positional sense and gait in rats) were employed for evaluating the compounds activity as neuroprotecting agents. These testing procedures are described in detail in Molecular and Cellular Targets for Anti-epileptic Drugs, eds. G. Avanzini, G. Regesta, P. Tanganelli, M. Avoli, 1997, John Libbey & Company Ltd, pp 191-198. The felbamate derivatives were evaluated for anticonvulsant activity following intraperitoneal (i.p.) administration in mice and oral administration in rats.
The MES test is a model for generalized tonic-clonic seizures and is used to identify compounds which prevent seizure spread. The behavioral and electrographic seizures generated in this model are consistent with the human disorder. In the MES test, an electrical stimulus of 0.2 s in duration (50 mA in mice and 150 mA in rat at 60Hz) was delivered via corneal electrodes primed with an electrolyte solution containing an anesthetic agent. Mice were tested at 30 minutes and 4 hours following doses of 30, 100 and 300 mg/kg of test compound. Rats were tested at time intervals between 0.25 and 4 hours following a standard oral dose of 30 mg/kg. Abolition of the hindlimb tonic extensor component indicates the test compound's ability to inhibit MES-induced seizure spread.
For the MES and scMET tests the data is presented in the form of the number of animals protected by the administered compound / total number of animals tested. […] Qualitative data was obtained for fluoro felbamate 12 (Tables 1 and 2A), fluoro monocarbamate felbamate 13 (Tables 1 and 2B), and fluorodioxo 16 (Tables 1 and 2C) and for cyclic felbamate 21 (Tables 5 and 6B) and cyclic monocarbamate 22 (Tables 5 and 6A). More extensive quantitative data was also obtained for fluoro felbamate 12 in mice (Table 3) and rats (Table 4).

pentylenetetrazol = experiment: Subcutaneous Metrazol seizure test (scMET), rats p.o.; type: in vivo, Sprague-Dawley rats; conditions: po, rat
Text: as §1
This is a model that primarily identifies compounds that raise seizure threshold. With some minor exceptions, the pharmacological profile of the scMET seizure model is consistent with the human condition. […]
For the MES and scMET tests the data is presented in the form of the number of animals protected by the administered compound / total number of animals tested. […] More extensive quantitative data was also obtained for fluoro felbamate 12 in mice (Table 3) and rats (Table 4).

mice = experiment: Toxicity, mice oral; type: in vivo; conditions: oral administration
Description: Toxicity induced by a compound is detected in mice using the standardized rotorod test described by Dunham & Miya (1957). Untreated control mice, when placed on a 6 r.p.m. rotation rod, can maintain their equilibrium for a prolonged period of time.
Toxicity across time doe not occur until dosages of 300mg/kg. […] Quantitative results obtained for fluoro felbamate 12 in mice indicated a MES ED50 of approximately 20 mg/kg with a safety ratio of at least five (see Table 3). Results obtained for oral administration of fluoro felbamate 12 to rats indicated a MES ED50 of about 3 mg/kg with no toxicity at doses up to 500 mg/kg.

rats = experiment: Minimal neurotoxicity (TOX), positional sense and gait and stance tests, rats p.o.; type: in vivo; conditions: for TOX, number of animals exhibiting toxic effects / total number of animals tested: rat p.o., 30 mg/kg
Text: as §1, with “G. Avanzini, G. Regesta, P. Tanganelli, M. Avoli, 1997, John Libbey & Company Ltd, pp 191-198.” left out
(§2) Rats are examined for behavioral toxicity by the positional sense test and a gait and stance test. […] In the gait and stance test, neurotoxicity is indicated by a circular or zigzag gait, ataxia, abnormal spread of the legs, abnormal posture, tremor hyperactivity, lack of exploratory behavior, somnolence, stupor or catalepsy. […]

[2] = as above; type: in vivo; conditions: in vivo, po; rat
Text: as §1, with “G. Avanzini, G. Regesta, P. Tanganelli, M. Avoli, 1997, John Libbey & Company Ltd, pp 191-198.” left out
as §2

seizures = experiment: NINDS standard panel of assays (MES, scMET, toxicity screen), overall; type: in vivo; conditions: relative to felbamate
Text: as §1

NC(=O)OCC(F)(COC(N)=O)c1ccccc1 [fluoro felbamate, 2-Fluoro-2-phenyl-1,3-propanediol dicarbamate]
ED50 ([1]; Rattus norvegicus, po, read-out: MES ED50, rat, p.o.): ~3 mg/kg
MES, number of animals protected / total number of animals tested ([1]; 0.25h): 2/4
MES, number of animals protected / total number of animals tested ([1]; 0.5h): 4/4
MES, number of animals protected / total number of animals tested ([1]; 1.0h): 4/4
MES, number of animals protected / total number of animals tested ([1]; 2.0h): 4/4
MES, number of animals protected / total number of animals tested ([1]; 4.0h): 4/4
ED50 (pentylenetetrazol): > 250 mg/kg
no toxicity at doses up to (mice): up to 218 mg/kg
TOX, number of animals exhibiting toxic effects / total number of animals tested (rats; 0.25h): 0/4
TOX, number of animals exhibiting toxic effects / total number of animals tested (rats; 0.5h): 0/4
TOX, number of animals exhibiting toxic effects / total number of animals tested (rats; 1.0h): 0/4
TOX, number of animals exhibiting toxic effects / total number of animals tested (rats; 2.0h): 0/4
TOX, number of animals exhibiting toxic effects / total number of animals tested (rats; 4.0h): 1/4
no toxicity at doses up to (rats; rats, oral administration): up to 500 mg/kg
ED50 [2]: > 500 mg/kg
times more active than felbamate (seizures): 5-10 times
